The values that follow come from patent publication US20240325404A1, “TREATMENT OF INFLAMMATORY DISEASES” (Galapagos NV, priority 2021, published 2024).

As a reminder, the AUC(0-inf) is total exposure, with the tail of the curve extrapolated. A higher AUC(0-inf) goes with more exposure. A word on the Cmax: it is the peak of the concentration-time curve.

Entries after “also recorded” stand apart in the source; their conditions may differ.

In one data set the target is CYP3A4 (Homo sapiens, UniProt P08684). The data set can be described thus: clinical. The following applies: in vivo. How it is done: On Days 1 and 7, single dose of 2 mg MDZ as commercially available liquid formulation, containing 2 mg/mL MDZ administered orally under fed conditions.
For a further data set, the system named is IFN-α/pSTAT1 pathway. The data set can be described thus: MDZ DDI study ex vivo IFN-α/pSTAT1 in CD4+ T-cells. Particulars: 150 mg q.d., Day 6, ex vivo stimulation of whole blood.
For the next data set, the system named is IL2/pSTAT5 pathway. Put plainly: MDZ DDI study ex vivo IL2/pSTAT5 in CD4+ T-cells. The following applies: 150 mg q.d., Day 6, ex vivo stimulation of whole blood.
The next data set deals with IL6/pSTAT3 pathway. Put plainly: MDZ DDI study ex vivo IL6/pSTAT3 in CD4+ T-cells. Particulars: 150 mg q.d., Day 6, ex vivo stimulation of whole blood.
In a further data set the test system is IL6/pSTAT1 pathway. Put plainly: MDZ DDI study ex vivo IL6/pSTAT1 in CD4+ T-cells. The following applies: 150 mg q.d., Day 6, ex vivo stimulation of whole blood.
In another data set the test system is IFN-α/pSTAT3 pathway. Put plainly: MDZ DDI study ex vivo IFN-α/pSTAT3 in CD4+ T-cells. Particulars: 150 mg q.d., Day 6, ex vivo stimulation of whole blood.

CYP3A4, sequence (P08684 whole entry): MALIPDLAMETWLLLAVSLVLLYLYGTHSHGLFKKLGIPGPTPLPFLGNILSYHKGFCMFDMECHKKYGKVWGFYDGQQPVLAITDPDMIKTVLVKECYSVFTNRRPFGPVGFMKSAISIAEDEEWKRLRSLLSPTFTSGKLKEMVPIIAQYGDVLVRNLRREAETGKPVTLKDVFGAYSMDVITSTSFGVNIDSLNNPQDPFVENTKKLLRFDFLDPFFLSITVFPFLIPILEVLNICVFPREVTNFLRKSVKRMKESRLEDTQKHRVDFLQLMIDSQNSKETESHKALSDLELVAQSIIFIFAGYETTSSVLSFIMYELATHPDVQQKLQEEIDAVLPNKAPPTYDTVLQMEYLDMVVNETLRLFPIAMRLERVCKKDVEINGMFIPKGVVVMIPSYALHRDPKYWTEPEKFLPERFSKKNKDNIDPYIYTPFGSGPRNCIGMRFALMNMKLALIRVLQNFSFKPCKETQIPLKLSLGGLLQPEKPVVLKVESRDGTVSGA

Turning to `Cc1ncc2n1-c1ccc(Cl)cc1C(c1ccccc1F)=NC2` [MDZ, midazolam], at CYP3A4, the AUC(0-inf) was 0.0279 µg·h/mL, the Cmax is 6.24 ng/mL and the “MDZ AUC0-∞ LS Geometric Mean Ratio (90% CI)” value is recorded as 121 (109; 133) %. On CYP3A4 (po, 2 mg), this compound displayed an AUC(0-inf) of 0.0235 µg·h/mL and a Cmax of 5.95 ng/mL.
Turning to `Cc1cc(C#N)ncc1Oc1cc(Nc2ccc(N3CCOCC3)nn2)c2ncn(C)c2n1` [Compound 1, 4-methyl-5-[3-methyl-7-[(6-morpholin-4-ylpyridazin-3-yl)amino]imidazo[4,5-b]pyridin-5-yl]oxypyridine-2-carbonitrile], the “effect on IFN-α/pSTAT1 pathway” value in the data set on IFN-α/pSTAT1 pathway is listed as “concentration-dependent inhibition”. In addition, the “effect on IL2/pSTAT5 pathway” value in the data set on IL2/pSTAT5 pathway was “Day 1 and Day 6 values were similar; also recorded: no inhibition and no concentration-dependent effect”. In addition, in the data set with IL6/pSTAT3 pathway, the “effect on IL6/pSTAT3 pathway” value was “Day 1 and Day 6 values were similar; also recorded: no inhibition and no concentration-dependent effect”. For the same compound, the “effect on IL6/pSTAT1 pathway” value in the data set on IL6/pSTAT1 pathway is “concentration-dependent inhibition”. Also, in the data set with IFN-α/pSTAT3 pathway, the “effect on IFN-α/pSTAT3 pathway” value is reported as “concentration-dependent inhibition”.
